Test results published in ChEMBL document CHEMBL1201862, “PubChem BioAssay data set” (2004).
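Assay format: 96-well plates, 48-hour exposure. GI50 = concentration required for 50% inhibition of growth.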 Calls of active or inactive are those of the source. No stated cut-off is given here; in the data, active = GI50 up to about 1.1 µM and inactive = higher.

Key:
Assay in all cases: NCI-60 cell line screen, 48 h
DMS-273 = system: DMS-273
M19-MEL = system: M19-MEL
XF498 = system: XF498
HOP-18 = system: HOP-18
LXFL 529 = system: LXFL 529
RXF 631 = system: RXF 631
DLD-1 = system: DLD-1
DMS-114 = system: DMS-114
SNB-78 = system: SNB-78

Measured: GI50

Cn1nc(-c2ccccc2)c(C(=O)/C=C/c2ccc(Cl)cc2)c(N2CCCC2)c1=O
inactive: DMS-273 3.62 µM | M19-MEL 7.24 µM | XF498 10.4 µM | HOP-18 6.49 µM | LXFL 529 3.47 µM | RXF 631 6.12 µM | DLD-1 2.69 µM | DMS-114 2.84 µM

CCCCCCCCCCCC(=O)OC[C@@H](C[As](=O)(O)O)OC(=O)CCCCCCCCCCC
inactive: DMS-273 3.26 µM | M19-MEL 6.05 µM | XF498 14.2 µM | HOP-18 14.5 µM | LXFL 529 5.45 µM | SNB-78 3.39 µM | DLD-1 18 µM | DMS-114 2.12 µM

COC1(C)CNCC(C)(C)NC(=O)C(C)(OC)CNCC(C)(C)NC1=O (stereo not drawn)
inactive: DMS-273 > 100 µM | M19-MEL > 100 µM | HOP-18 > 100 µM | LXFL 529 > 100 µM | SNB-78 > 100 µM | RXF 631 > 100 µM | DLD-1 > 100 µM | DMS-114 > 100 µM

C=CN1C(=O)[C@H](Oc2ccccc2)[C@@H]1c1ccccc1
inactive: M19-MEL 43.4 µM | XF498 26.1 µM | HOP-18 37.8 µM | LXFL 529 31.4 µM | SNB-78 43.5 µM | DLD-1 28.5 µM | DMS-114 27.6 µM

CCN(CC)c1ccc(/N=N/c2ccc(-c3nc4cccnc4s3)cc2)cc1
inactive: M19-MEL 7.69 µM | XF498 18.2 µM | LXFL 529 > 100 µM | SNB-78 > 100 µM | DLD-1 > 100 µM | DMS-114 46.5 µM

CC(=O)Nc1ccc(-c2nnc(SCC(=O)Nc3ccccc3C)o2)cc1
inactive: DMS-273 35.4 µM | M19-MEL 70.1 µM | HOP-18 > 100 µM | LXFL 529 33.3 µM | SNB-78 47 µM | DLD-1 49.8 µM | DMS-114 > 100 µM

CN(C)CC/C(=N\Nc1ccc(Cl)cc1Cl)c1ccccc1
inactive: DMS-273 13.8 µM | M19-MEL 17.2 µM | HOP-18 8.85 µM | LXFL 529 13.2 µM | SNB-78 13.5 µM | DLD-1 10.3 µM | DMS-114 13.8 µM

CN(C=O)/C=C/c1cc(O)ccc1O
inactive: DMS-273 > 39.4 µM | M19-MEL 20.8 µM | HOP-18 14.6 µM | LXFL 529 18.8 µM | SNB-78 30.8 µM | RXF 631 47.5 µM | DLD-1 20 µM | DMS-114 45.9 µM

Nc1ncnc2c1ncn2C1OC(CSCc2ccc(Cl)cc2)C(O)C1O (stereo not drawn)
inactive: DMS-273 30.1 µM | M19-MEL 33.7 µM | XF498 22.8 µM | HOP-18 42 µM | LXFL 529 17.2 µM | SNB-78 68.9 µM | DLD-1 14.6 µM | DMS-114 21.9 µM

COC(=O)[C@H]1C=C[C@@H](C)n2c(=O)c3ccccc3c(=O)n21
inactive: DMS-273 > 100 µM | M19-MEL > 100 µM | XF498 > 100 µM | LXFL 529 > 100 µM | SNB-78 > 100 µM | DLD-1 > 100 µM | DMS-114 > 100 µM

CC(C)(C)OC(=O)c1cccnc1/C=N/O
inactive: DMS-273 > 100 µM | M19-MEL > 100 µM | XF498 > 100 µM | HOP-18 > 100 µM | LXFL 529 > 100 µM | SNB-78 > 100 µM | RXF 631 > 100 µM | DLD-1 > 100 µM | DMS-114 > 100 µM

COC(CC1(OC)OC(=O)C=C1N)OC (stereo not drawn)
inactive: DMS-273 > 100 µM | M19-MEL > 100 µM | HOP-18 > 100 µM | LXFL 529 > 100 µM | SNB-78 > 100 µM | DLD-1 > 100 µM | DMS-114 > 100 µM

O=C1c2ccccc2C(=O)N1C/C=N/NS(=O)(=O)c1cccc([N+](=O)[O-])c1
inactive: DMS-273 > 100 µM | M19-MEL > 100 µM | XF498 > 100 µM | LXFL 529 > 100 µM | DLD-1 > 100 µM | DMS-114 > 100 µM

CCC(=O)c1c(NOC2OC(COC(C)=O)C(OC(C)=O)C(OC(C)=O)C2OC(C)=O)nc(OC)n(C)c1=O (stereo not drawn)
inactive: DMS-273 > 100 µM | M19-MEL > 100 µM | XF498 > 100 µM | LXFL 529 > 100 µM | SNB-78 > 100 µM | RXF 631 > 100 µM | DLD-1 > 100 µM | DMS-114 > 100 µM

O=C(Nc1nc2ccccc2n1Cc1ccccc1)NC12CC3CC(CC(C3)C1)C2
inactive: DMS-273 16.9 µM | M19-MEL 61.4 µM | XF498 17.8 µM | HOP-18 44.8 µM | LXFL 529 67.8 µM | SNB-78 19.8 µM | DLD-1 87.9 µM | DMS-114 57.3 µM

CC1=CC(O)(c2ccc(-c3ccccc3Cl)cc2)OC1=O (stereo not drawn)
inactive: DMS-273 > 100 µM | M19-MEL > 100 µM | HOP-18 > 100 µM | LXFL 529 > 100 µM | RXF 631 > 100 µM | DLD-1 > 100 µM | DMS-114 > 100 µM

CCOC(=O)C1=C(c2ccccc2)NC(c2ccccc2)=C(C(=O)OCC)c2c1c(=O)cc[nH]c2=O
inactive: DMS-273 > 100 µM | M19-MEL > 100 µM | XF498 > 100 µM | LXFL 529 > 100 µM | SNB-78 94 µM | RXF 631 34.7 µM | DLD-1 > 100 µM

CC(=O)CC(=O)CCC(=O)Nc1cccc(C(F)(F)F)c1
inactive: DMS-273 > 100 µM | XF498 > 100 µM | HOP-18 > 100 µM | LXFL 529 > 100 µM | SNB-78 > 100 µM | DLD-1 > 100 µM | DMS-114 > 100 µM

O=c1cc(-c2cccnc2)[nH]c2cc3c(cc12)OCO3
inactive: DMS-273 4.13 µM | M19-MEL 3.59 µM | XF498 7.36 µM | HOP-18 1.17 µM | LXFL 529 2.3 µM | SNB-78 27.7 µM | DLD-1 4.03 µM | DMS-114 7.01 µM

CC(=O)c1ccc(NC(=O)C(=O)C(C(=O)/C=C/c2ccccc2)C2OC(=O)c3ccccc32)cc1 (stereo not drawn)
inactive: DMS-273 > 100 µM | M19-MEL > 100 µM | XF498 > 100 µM | HOP-18 > 100 µM | LXFL 529 96.6 µM | SNB-78 > 100 µM | RXF 631 > 100 µM | DLD-1 > 100 µM

N#C/C(=C/c1cccc2ccccc12)C(=O)c1ccccc1
inactive: M19-MEL 28.4 µM | XF498 20.1 µM | SNB-78 42.9 µM | DMS-114 51.6 µM

O=C(c1ccccc1)N1C2C3CC(OCc4ccccc4)(OCc4ccccc4)C(O3)C21 (stereo not drawn)
inactive: M19-MEL > 100 µM | XF498 > 100 µM | LXFL 529 > 100 µM | SNB-78 > 100 µM | RXF 631 > 100 µM | DLD-1 > 100 µM | DMS-114 > 100 µM

CCCCCCC(O)C/C=C/CCCCCC/C(C(=O)OC)=C(/O)C(=O)OCC (stereo not drawn)
inactive: DMS-273 > 100 µM | M19-MEL > 100 µM | XF498 > 100 µM | HOP-18 > 100 µM | LXFL 529 > 100 µM | SNB-78 > 100 µM | RXF 631 > 100 µM | DLD-1 > 100 µM | DMS-114 > 100 µM

O=c1cccccc1O.O=c1cccccc1O.O=c1cccccc1O.[SiH4]
inactive: DMS-273 14.5 µM | M19-MEL 18.8 µM | XF498 17.7 µM | HOP-18 65.9 µM | LXFL 529 18.8 µM | DLD-1 6.43 µM | DMS-114 11.7 µM

N#CC(C#N)=C(N)/C(C#N)=C/c1cc(O)c(O)c(Br)c1
inactive: DMS-273 59.2 µM | M19-MEL > 100 µM | XF498 35.7 µM | LXFL 529 44.9 µM | SNB-78 75.7 µM | DLD-1 55.6 µM | DMS-114 29.1 µM
